# Like-named read-outs stand apart in the source and are kept apart here.
# Columns and labels:
# [1] = tested on: C32 human melanoma cells; experiment: cell viability in the C32 cell-based assay (Viability, C32 IC50); settings: concentration causing 50% cell death, values greater than 10 represent a lack of cell death
# In short: (§1)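 Viability readouts were run alongside the GM3 cell-surface assay in the same B16 and C32 cultures. A figure above 10 indicates no cell death.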
# [2] = tested on: B16 mouse melanoma cells; experiment: cell viability in the B16 cell-based assay (Viability, B16 IC50)
# In short: as §1
# [3] = tested on: GM3 expression on the cell surface, C32 human melanoma cells; experiment: cell based phenotypic assay, cell surface GM3 by antibody mediated immunofluorescence, C32 (GM3 C32 IC50); settings: 50% inhibition of GM3 expression on the cell surface
# In short: (§2)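 Both lines undergo the phenotypic GM3 assay, and viability is recorded from that same cell-based run.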
# [4] = biological target: T1, glucosylceramide synthase (Homo sapiens, UniProt Q16739); experiment: microsomal assay measuring conversion of ceramide to glucosylceramide by HPLC (GCS IC50); assay type: biochemical; settings: concentration causing 50% inhibition of glucosylceramide synthase activity
# T1 construct: Microsomes were isolated from A375 human melanoma cells; endogenous in cells; host or cells: A375 human melanoma cells (microsomal fraction, 100,000 g pellet)
# T1 sequence (Q16739 1-394): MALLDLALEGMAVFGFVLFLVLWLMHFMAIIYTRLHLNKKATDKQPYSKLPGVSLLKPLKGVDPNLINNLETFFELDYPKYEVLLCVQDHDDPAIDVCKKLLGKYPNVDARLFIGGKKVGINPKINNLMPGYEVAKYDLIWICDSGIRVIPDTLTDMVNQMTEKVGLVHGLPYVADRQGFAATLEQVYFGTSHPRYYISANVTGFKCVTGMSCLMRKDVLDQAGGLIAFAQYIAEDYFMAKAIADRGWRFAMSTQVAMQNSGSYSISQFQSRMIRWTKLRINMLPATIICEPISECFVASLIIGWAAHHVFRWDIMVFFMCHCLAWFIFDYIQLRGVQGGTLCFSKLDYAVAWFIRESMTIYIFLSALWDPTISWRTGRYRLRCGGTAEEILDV
# In short: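 IC50 is the compound concentration halving glucosylceramide synthase activity. Activity was measured in microsomes, with HPLC quantifying glucosylceramide formed from ceramide.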
# [5] = tested on: GM3 expression on the cell surface, B16 mouse melanoma cells; experiment: cell based phenotypic assay, cell surface GM3 by antibody mediated immunofluorescence, B16 (GM3 B16 IC50); settings: 50% inhibition of GM3 expression on the cell surface
# In short: as §2
# [6] = Homo sapiens, C32, read-out: Viability, C32 IC50, C32 cells
# [7] = Mus musculus, B16, read-out: Viability, B16 IC50
# [8] = Homo sapiens, read-out: GM3 C32 IC50, C32 human melanoma cells
# [9] = Mus musculus, read-out: GM3 B16 IC50, B16 mouse melanoma cells
# [10] = Homo sapiens, C32, C32 cells, read-out: Viability, C32 IC50
# [11] = Mus musculus, B16, B16 cells, concentration causing 50% cell death, values greater than 10 represent a lack of cell death, read-out: Viability, B16 IC50
# [12] = Homo sapiens, C32 human melanoma cells, read-out: GM3 C32 IC50
# [13] = Mus musculus, B16 mouse melanoma cells, read-out: GM3 B16 IC50
# [14] = C32 human melanoma cells, read-out: GM3 C32 IC50
# [15] = B16 mouse melanoma cells, read-out: GM3 B16 IC50
"IC50 [3, 12] [nM]","IC50 [5, 13] [nM]",Molecule,IC50 [4] [nM],"IC50 [1, 10] [nM]","IC50 [2, 11] [nM]",further results
,,"COCCOc1ccc(-c2ccc(C3(NC(=O)OC4CN5CCC4CC5)CC3)cc2)cc1 (stereo not shown) [Example 166, Quinuclidin-3-yl (1-(4′-(2-methoxyethoxy)-[1,1′-biphenyl]-4-yl)cyclopropyl)carbamate]",5.69,,,"IC50 [1, 6]: 215 nM; IC50 [2, 7]: 316 nM; IC50 [3, 8]: 1.81 nM; IC50 [5, 9]: 21.9 nM"
4.39,152,"COCCCOc1cnc(-c2cccc(C(C)(C)NC(=O)OC3CCN4CCC3CC4)c2)cn1 (stereo not shown) [Example 316, 1-Azabicyclo[3.2.2]nonan-4-yl (2-(3-(5-(3-methoxypropoxy)pyrazin-2-yl)phenyl)propan-2-yl)carbamate]",28,≥ 10000,≥ 10000,
,,"CC1(NC(=O)C2CCN(c3nccc(-c4ccc(F)cc4)n3)CC2)CCN2CCC1CC2 (single isomer, unassigned) [Example 42, 1-(4-(4-Fluorophenyl)pyrimidin-2-yl)-N-(4-methyl-1-azabicyclo[3.2.2]nonan-4-yl)piperidine-4-carboxamide]",94.1,4640,7660,"IC50 [3, 14]: 9.82 nM; IC50 [5, 15]: 918 nM"
0.316,86.3,"COCCOCc1ccc(-c2nc(N3CCC(F)(C(=O)NC4(C)CCN5CCC4CC5)CC3)ncc2F)cc1 (stereo not shown) [Example 77, 4-Fluoro-1-(5-fluoro-4-(4-((2-methoxyethoxy)methyl)phenyl)pyrimidin-2-yl)-N-(4-methyl-1-azabicyclo[3.2.2]nonan-4-yl)piperidine-4-carboxamide]",1.67,316,3760,
,,"COCCCOc1ccc(C#CC(C)(C)NC(=O)OC2CN3CCC2CC3)cc1 (stereo not shown) [Example 331, Quinuclidin-3-yl (4-(4-(3-methoxypropoxy)phenyl)-2-methylbut-3-yn-2-yl)carbamate]",1330,,,"IC50 ([1]; read-out: Viability, C32 IC50, C32 cells): ≥ 10000 nM; IC50 ([2]; read-out: Viability, B16 IC50, B16 cells, concentration causing 50% cell death, values greater than 10 represent a lack of cell death): ≥ 10000 nM; IC50 [3, 8]: 118 nM; IC50 [5, 9]: 1760 nM"
,,"CC(C)(NC(=O)OC1CN2CCC1CC2)c1ccc(-c2ccc(C(=O)N3CCC(F)(F)CC3)cc2)cc1 (stereo not shown) [Example 270, Quinuclidin-3-yl 2-(4′-(4,4-difluoropiperidine-1-carbonyl)biphenyl-4-yl)propan-2-ylcarbamate]",25,,,"IC50 [1, 6]: 1000 nM; IC50 [2, 7]: ≥ 10000 nM; IC50 [3, 8]: 3.56 nM; IC50 [5, 9]: 67 nM"
0.128,42.1,"COCCCOc1ccc(-c2ccnc(N3CCC(F)(C(=O)NC4(C)CCN5CCC4CC5)CC3)n2)cc1 (stereo not shown) [Example 82, 4-Fluoro-1-(4-(4-(3-methoxypropoxy)phenyl)pyrimidin-2-yl)-N-(4-methyl-1-azabicyclo[3.2.2]nonan-4-yl)piperidine-4-carboxamide]",1.26,1000,2790,
,,"COCCOc1ccc(-c2ccc(C(C)(C)NC(=O)OC3CN4CCC3CC4)cc2)nc1 (stereo not shown) [Example 308, Quinuclidin-3-yl 2-(4-(5-(2-methoxyethoxy)pyridin-2-yl)phenyl)propan-2-ylcarbamate]",254,,,"IC50 [1, 6]: 1000 nM; IC50 [2, 7]: 7770 nM; IC50 [3, 8]: 35.8 nM; IC50 [5, 9]: 314 nM"
,,"C[C@H]1CN(C(=O)NC2(C)CCN3CCC2CC3)CCN1c1nccc(-c2ccccc2)n1 (single isomer, unassigned) [Example 139]",17.3,3160,5250,"IC50 [3, 14]: 1.37 nM; IC50 [5, 15]: 67 nM"
0.902,38.8,"CC(C)(C)CCS(=O)(=O)c1ccc(C#CC(C)(C)NC(=O)NC2(C)CCN3CCC2CC3)cc1 (stereo not shown) [Example 336, 1-(4-(4-((3,3-Dimethylbutyl)sulfonyl)phenyl)-2-methylbut-3-yn-2-yl)-3-(4-methyl-1-azabicyclo[3.2.2]nonan-4-yl)urea]",1.2,≥ 10000,≥ 10000,
,,"Quinuclidin-3-yl (2-(4′-(2-methoxyethoxy)-[1,1′-biphenyl]-3-yl)propan-2-yl)carbamate [Example 175]",2.5,,,"IC50 ([1]; C32 cells, read-out: Viability, C32 IC50): 9000 nM; IC50 ([2]; B16 cells, concentration causing 50% cell death, values greater than 10 represent a lack of cell death, read-out: Viability, B16 IC50): ≥ 10000 nM; IC50 [3, 14]: 1.87 nM; IC50 [5, 15]: 71.3 nM"
0.884,546,"CC1(NC(=O)C2CN(c3nccc(-c4ccc(F)cc4)n3)C2)CCN2CCC1CC2 (stereo not shown) [Example 113, 1-(4-(4-Fluorophenyl)pyrimidin-2-yl)-N-(4-methyl-1-azabicyclo[3.2.2]nonan-4-yl)azetidine-3-carboxamide]",8.31,316,≥ 10000,
11.1,272,"CC1(NC(=O)C2CN(c3cccc(-c4ccc(F)cc4)c3)C2)CCN2CCC1CC2 (stereo not shown) [Example 114, 1-(4′-Fluoro-[1,1′-biphenyl]-3-yl)-N-(4-methyl-1-azabicyclo[3.2.2]nonan-4-yl)azetidine-3-carboxamide]",51,1000,3460,
7.06,843,"CNC(=O)c1ccc(Oc2ccc(C(C)(C)NC(=O)NC3(C)CCN4CCC3CC4)cc2)cc1 (stereo not shown) [Example 294, N-Methyl-4-(4-(2-(3-(4-methyl-1-aza-bicyclo[3.2.2]nonan-4-yl)ureido)propan-2-yl)phenoxy)benzamide]",12.4,1000,≥ 10000,

Molecule,"IC50 [3, 12] [nM]","IC50 [5, 13] [nM]",IC50 [4] [nM],"IC50 [1, 10] [nM]","IC50 [2, 11] [nM]",further results
"CCCC1(NC(=O)NC(C)(C)C#Cc2ccc(COC)cc2)CN2CCC1CC2 (stereo not shown) [Example 328, 1-(4-(4-(Methoxymethyl)phenyl)-2-methylbut-3-yn-2-yl)-3-(3-propylquinuclidin-3-yl)urea]",3.32,115,25.1,3160,3160,
"COCCCOc1ccc(-c2nc(N3CCC(C(=O)NC4(C)CN5CCC4CC5)CC3)ncc2F)cc1 (stereo not shown) [Example 63, 1-(5-Fluoro-4-(4-(3-methoxypropoxy)phenyl)pyrimidin-2-yl)-N-(3-methylquinuclidin-3-yl)piperidine-4-carboxamide]",0.0988,40.8,0.586,100,3520,
"CC1(NC(=O)N2CCN(c3ccccc3)CC2)CN2CCC1CC2 (stereo not shown) [Example 9, N-(3-Methylquinuclidin-3-yl)-4-phenylpiperazine-1-carboxamide]",7590,> 10000,12200,≥ 10000,≥ 10000,
"CCCC1(NC(=O)NC2(c3ccc(-c4ccc(COCc5cccnc5)cc4)cc3)CC2)CN2CCC1CC2 (stereo not shown) [Example 218, 1-(3-Propylquinuclidin-3-yl)-3-(1-(4′-((pyridin-3-ylmethoxy)methyl)-[1,1′-biphenyl]-4-yl)cyclopropyl)urea]",2.97,80.9,11,≥ 10000,7950,
"CCC1(NC(=O)NC(C)(C)c2ccc(-c3ccc(C(=O)N4CC(F)(F)C4)cc3)cc2)CN2CCC1CC2 (stereo not shown) [Example 275, 1-(2-(4′-(3,3-Difluoroazetidine-1-carbonyl)biphenyl-4-yl)propan-2-yl)-3-(3-ethylquinuclidin-3-yl)urea]",2.92,55.4,75.6,1000,≥ 10000,
"COCCOCc1ccc(-c2ccc(C3(NC(=O)N[C@]4(C)CN5CCC4CC5)CC3)cc2)cc1 [Example 210, (S)-1-(1-(4′-((2-Methoxyethoxy)methyl)-[1,1′-biphenyl]-4-yl)cyclopropyl)-3-(3-methylquinuclidin-3-yl)urea]",3.34,87,50.2,≥ 10000,≥ 10000,

# — patent publication US12060349B2, “Glucosylceramide synthase inhibitors” (Genzyme Corporation, priority 2012, dated 2024)
